According to US10681909B2, “Herbicidal triazoles” (FMC Corporation, priority 2014, dated 2020):

How the values were obtained:
chamomile [1] = assay: Test D postemergence; assay type: in vivo, Matricaria inodora; details: scale 0 to 100
Method in brief: (§1)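 Both application timings used one formulation, a non-phytotoxic solvent mixture with surfactant. Preemergence pots held silt loam, and postemergence plants grew in peat moss/vermiculite medium to the 1- to 4-leaf stage. All plants were held under controlled conditions for 14 to 21 d before visual scoring relative to controls.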

deadnettle = assay: Test D postemergence; assay type: in vivo, Lamium amplexicaule; details: scale 0 to 100
Method in brief: as §1

pigweed [2] = assay: Test D postemergence; assay type: in vivo, Amaranthus retroflexus; details: scale 0 to 100
Method in brief: as §1

wild mustard = assay: Test D postemergence; assay type: in vivo, Sinapis arvensis; details: scale 0 to 100
Method in brief: as §1

morningglory = assay: Test A postemergence; assay type: in vivo, Ipomoea spp.; details: Ipomoea, post-emergence, 240 h, 0 to 100 scale (0 no effect, 100 complete control), approx. 10 d, read-out: Plant response rating, Morningglory; for pest or weed control at 125 g/ha: 125 g ai/ha; for pest or weed control at 500 g/ha: 500 g ai/ha
Method in brief: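 Herbicidal response was scored on plants treated pre- or postemergence with surfactant-containing, non-phytotoxic solvent formulations. Preemergence meant a directed spray onto soil (loam–sand) holding sown seed; postemergence plants were at one to two leaves.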

field poppy = assay: Test D postemergence; assay type: in vivo, Papaver rhoeas; details: scale 0 to 100
Method in brief: as §1

ryegrass, Italian = assay: Test C preemergence; assay type: in vivo, Lolium multiflorum; details: for Ryegrass, Italian plant response rating (0 to 100): Preemergence, visual rating after 13 to 15 d; for Plant response rating (scale of 0 to 100 where 0 is no effect and 100 is complete control): Ryegrass, Italian, preemergence
Method in brief: (§2)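 Surfactant-containing, non-phytotoxic solvent formulations of each compound were applied either preemergence to seeds in a loam soil–sand blend or postemergence to plants 2 to 18 cm tall (1- to 4-leaf stage). Postemergence plants were grown in peat moss–vermiculite medium.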

chamomile [3] = assay: Test D preemergence; assay type: in vivo, Matricaria inodora; details: scale 0 to 100
Method in brief: as §1

barnyardgrass = assay: Test C preemergence; assay type: in vivo, Echinochloa crus-galli; details: for Plant response rating (scale of 0 to 100 where 0 is no effect and 100 is complete control): Barnyardgrass, preemergence; for Barnyardgrass plant response rating (0 to 100): Preemergence, visual rating after 13 to 15 d
Method in brief: as §2

galium = assay: Test D preemergence; assay type: in vivo, Galium aparine; details: scale 0 to 100
Method in brief: as §1

pigweed [4] = assay: Test D preemergence; assay type: in vivo, Amaranthus retroflexus; details: scale 0 to 100
Method in brief: as §1

ryegrass, Ital. = assay: Test D postemergence; assay type: in vivo, Lolium multiflorum; details: scale 0 to 100
Method in brief: as §1

wheat, winter = assay: Test D preemergence; assay type: in vivo, Triticum aestivum; details: scale 0 to 100
Method in brief: as §1

wheat, spring = assay: Test D preemergence; assay type: in vivo, Triticum aestivum; details: scale 0 to 100
Method in brief: as §1

CCOc1nc(-c2ccc(F)cc2)nn1Cc1ccnc(C(F)(F)F)c1 [Compound 8, 4-[[5-ethoxy-3-(4-fluorophenyl)-1H-1,2,4-triazol-1-yl]methyl]-2-(trifluoromethyl)pyridine]
Plant response rating: Chamomile (chamomile [1]; 31 g ai/ha): 50 | Plant response rating: Chamomile (chamomile [1]; 62 g ai/ha): 50 | Plant response rating: Chamomile (chamomile [1]; 125 g ai/ha): 60 | Plant response rating: Chamomile (chamomile [1]; 250 g ai/ha): 65 | Plant response rating: Deadnettle (deadnettle; 31 g ai/ha): 75 | Plant response rating: Deadnettle (deadnettle; 62 g ai/ha): 80 | Plant response rating: Deadnettle (deadnettle; 125 g ai/ha): 95 | Plant response rating: Deadnettle (deadnettle; 250 g ai/ha): 90 | Plant response rating: Pigweed (pigweed [2]; 31 g ai/ha): 95 | Plant response rating: Pigweed (pigweed [2]; 62 g ai/ha): 95 | Plant response rating: Pigweed (pigweed [2]; 125 g ai/ha): 100 | Plant response rating: Pigweed (pigweed [2]; 250 g ai/ha): 95 | Plant response rating: Mustard, Wild (wild mustard; 31 g ai/ha): 100 | Plant response rating: Mustard, Wild (wild mustard; 62 g ai/ha): 100 | Plant response rating: Mustard, Wild (wild mustard; 125 g ai/ha): 100 | Plant response rating: Mustard, Wild (wild mustard; 250 g ai/ha): 100 | pest or weed control at 125 g/ha (morningglory): 90% | pest or weed control at 500 g/ha (morningglory): 100% | Plant response rating: Field Poppy (field poppy; 31 g ai/ha): 80 | Plant response rating: Field Poppy (field poppy; 62 g ai/ha): 90 | Plant response rating: Field Poppy (field poppy; 125 g ai/ha): 95 | Plant response rating: Field Poppy (field poppy; 250 g ai/ha): 100 | Ryegrass, Italian plant response rating (0 to 100) (ryegrass, Italian; 31 g ai/ha): 50 | Ryegrass, Italian plant response rating (0 to 100) (ryegrass, Italian; 62 g ai/ha): 80 | Plant response rating (scale of 0 to 100 where 0 is no effect and 100 is complete control) (ryegrass, Italian; 125 g ai/ha): 90 | Plant response rating (scale of 0 to 100 where 0 is no effect and 100 is complete control) (ryegrass, Italian; 250 g ai/ha): 90 | Plant response rating: Chamomile (chamomile [3]; 31 g ai/ha): 10 | Plant response rating: Chamomile (chamomile [3]; 62 g ai/ha): 30 | Plant response rating: Chamomile (chamomile [3]; 125 g ai/ha): 100 | Plant response rating: Chamomile (chamomile [3]; 250 g ai/ha): 100 | Plant response rating (scale of 0 to 100 where 0 is no effect and 100 is complete control) (barnyardgrass; 125 g ai/ha): 100 | Plant response rating (scale of 0 to 100 where 0 is no effect and 100 is complete control) (barnyardgrass; 250 g ai/ha): 100 | Barnyardgrass plant response rating (0 to 100) (barnyardgrass; 31 g ai/ha): 98 | Barnyardgrass plant response rating (0 to 100) (barnyardgrass; 62 g ai/ha): 100 | Plant response rating: Galium (galium; 62 g ai/ha): 35 | Plant response rating: Galium (galium; 125 g ai/ha): 50 | Plant response rating: Galium (galium; 250 g ai/ha): 70 | Plant response rating: Pigweed (pigweed [4]; 62 g ai/ha): 100 | Plant response rating: Pigweed (pigweed [4]; 125 g ai/ha): 100 | Plant response rating: Pigweed (pigweed [4]; 250 g ai/ha): 100 | Plant response rating: Ryegrass, Ital. (ryegrass, Ital.; 31 g ai/ha): 35 | Plant response rating: Ryegrass, Ital. (ryegrass, Ital.; 62 g ai/ha): 35 | Plant response rating: Ryegrass, Ital. (ryegrass, Ital.; 125 g ai/ha): 55 | Plant response rating: Ryegrass, Ital. (ryegrass, Ital.; 250 g ai/ha): 55 | Plant response rating: Wheat, Winter (wheat, winter; 62 g ai/ha): 25 | Plant response rating: Wheat, Winter (wheat, winter; 125 g ai/ha): 40 | Plant response rating: Wheat, Winter (wheat, winter; 250 g ai/ha): 65 | Plant response rating: Wheat, Spring (wheat, spring; 62 g ai/ha): 15 | Plant response rating: Wheat, Spring (wheat, spring; 125 g ai/ha): 35 | Plant response rating: Wheat, Spring (wheat, spring; 250 g ai/ha): 70

CCc1nc(-c2ccc(C(F)(F)F)cc2)nn1Cc1ccnc(C(F)(F)F)c1 [Compound 1, 4-[[5-ethyl-3-[4-(trifluoromethyl)phenyl]-1H-1,2,4-triazol-1-yl]methyl]-2-(trifluoromethyl)pyridine]
Plant response rating: Chamomile (chamomile [1]; 31 g ai/ha): 25 | Plant response rating: Chamomile (chamomile [1]; 62 g ai/ha): 35 | Plant response rating: Chamomile (chamomile [1]; 125 g ai/ha): 55 | Plant response rating: Chamomile (chamomile [1]; 250 g ai/ha): 65 | Plant response rating: Deadnettle (deadnettle; 31 g ai/ha): 65 | Plant response rating: Deadnettle (deadnettle; 62 g ai/ha): 60 | Plant response rating: Deadnettle (deadnettle; 125 g ai/ha): 70 | Plant response rating: Deadnettle (deadnettle; 250 g ai/ha): 85 | Plant response rating: Pigweed (pigweed [2]; 31 g ai/ha): 80 | Plant response rating: Pigweed (pigweed [2]; 62 g ai/ha): 85 | Plant response rating: Pigweed (pigweed [2]; 125 g ai/ha): 85 | Plant response rating: Pigweed (pigweed [2]; 250 g ai/ha): 85 | Plant response rating: Mustard, Wild (wild mustard; 31 g ai/ha): 100 | Plant response rating: Mustard, Wild (wild mustard; 62 g ai/ha): 100 | Plant response rating: Mustard, Wild (wild mustard; 125 g ai/ha): 100 | Plant response rating: Mustard, Wild (wild mustard; 250 g ai/ha): 100 | pest or weed control at 125 g/ha (morningglory): 90% | pest or weed control at 500 g/ha (morningglory): 100% | Plant response rating: Field Poppy (field poppy; 31 g ai/ha): 70 | Plant response rating: Field Poppy (field poppy; 62 g ai/ha): 100 | Plant response rating: Field Poppy (field poppy; 125 g ai/ha): 100 | Plant response rating: Field Poppy (field poppy; 250 g ai/ha): 100 | Ryegrass, Italian plant response rating (0 to 100) (ryegrass, Italian; 31 g ai/ha): 5 | Ryegrass, Italian plant response rating (0 to 100) (ryegrass, Italian; 62 g ai/ha): 10 | Plant response rating (scale of 0 to 100 where 0 is no effect and 100 is complete control) (ryegrass, Italian; 125 g ai/ha): 90 | Plant response rating: Chamomile (chamomile [3]; 31 g ai/ha): 0 | Plant response rating: Chamomile (chamomile [3]; 62 g ai/ha): 20 | Plant response rating: Chamomile (chamomile [3]; 125 g ai/ha): 80 | Plant response rating: Chamomile (chamomile [3]; 250 g ai/ha): 100 | Plant response rating (scale of 0 to 100 where 0 is no effect and 100 is complete control) (barnyardgrass; 125 g ai/ha): 55 | Plant response rating (scale of 0 to 100 where 0 is no effect and 100 is complete control) (barnyardgrass; 250 g ai/ha): 70 | Barnyardgrass plant response rating (0 to 100) (barnyardgrass; 31 g ai/ha): 10 | Barnyardgrass plant response rating (0 to 100) (barnyardgrass; 62 g ai/ha): 35 | Plant response rating: Galium (galium; 125 g ai/ha): 60 | Plant response rating: Galium (galium; 250 g ai/ha): 100 | Plant response rating: Pigweed (pigweed [4]; 62 g ai/ha): 100 | Plant response rating: Pigweed (pigweed [4]; 125 g ai/ha): 100 | Plant response rating: Pigweed (pigweed [4]; 250 g ai/ha): 100 | Plant response rating: Ryegrass, Ital. (ryegrass, Ital.; 31 g ai/ha): 10 | Plant response rating: Ryegrass, Ital. (ryegrass, Ital.; 62 g ai/ha): 15 | Plant response rating: Ryegrass, Ital. (ryegrass, Ital.; 125 g ai/ha): 20 | Plant response rating: Ryegrass, Ital. (ryegrass, Ital.; 250 g ai/ha): 35 | Plant response rating: Wheat, Winter (wheat, winter; 62 g ai/ha): 0 | Plant response rating: Wheat, Winter (wheat, winter; 125 g ai/ha): 0 | Plant response rating: Wheat, Winter (wheat, winter; 250 g ai/ha): 0 | Plant response rating: Wheat, Spring (wheat, spring; 62 g ai/ha): 0 | Plant response rating: Wheat, Spring (wheat, spring; 125 g ai/ha): 0 | Plant response rating: Wheat, Spring (wheat, spring; 250 g ai/ha): 5
